Test results: ChEMBL document CHEMBL5291721, “A preclinical secondary pharmacology resource illuminates target-adverse drug reaction associations of marketed drugs” (Nat Commun, 2023)

Legend:
[1] = biological target: Voltage-gated inwardly rectifying potassium channel KCNH2 (Homo sapiens, UniProt Q12809); format: functional; conditions: read-out: AC50
[2] = biological target: T1, Progesterone receptor (Homo sapiens, UniProt P06401)
T1 sequence (P06401 whole entry): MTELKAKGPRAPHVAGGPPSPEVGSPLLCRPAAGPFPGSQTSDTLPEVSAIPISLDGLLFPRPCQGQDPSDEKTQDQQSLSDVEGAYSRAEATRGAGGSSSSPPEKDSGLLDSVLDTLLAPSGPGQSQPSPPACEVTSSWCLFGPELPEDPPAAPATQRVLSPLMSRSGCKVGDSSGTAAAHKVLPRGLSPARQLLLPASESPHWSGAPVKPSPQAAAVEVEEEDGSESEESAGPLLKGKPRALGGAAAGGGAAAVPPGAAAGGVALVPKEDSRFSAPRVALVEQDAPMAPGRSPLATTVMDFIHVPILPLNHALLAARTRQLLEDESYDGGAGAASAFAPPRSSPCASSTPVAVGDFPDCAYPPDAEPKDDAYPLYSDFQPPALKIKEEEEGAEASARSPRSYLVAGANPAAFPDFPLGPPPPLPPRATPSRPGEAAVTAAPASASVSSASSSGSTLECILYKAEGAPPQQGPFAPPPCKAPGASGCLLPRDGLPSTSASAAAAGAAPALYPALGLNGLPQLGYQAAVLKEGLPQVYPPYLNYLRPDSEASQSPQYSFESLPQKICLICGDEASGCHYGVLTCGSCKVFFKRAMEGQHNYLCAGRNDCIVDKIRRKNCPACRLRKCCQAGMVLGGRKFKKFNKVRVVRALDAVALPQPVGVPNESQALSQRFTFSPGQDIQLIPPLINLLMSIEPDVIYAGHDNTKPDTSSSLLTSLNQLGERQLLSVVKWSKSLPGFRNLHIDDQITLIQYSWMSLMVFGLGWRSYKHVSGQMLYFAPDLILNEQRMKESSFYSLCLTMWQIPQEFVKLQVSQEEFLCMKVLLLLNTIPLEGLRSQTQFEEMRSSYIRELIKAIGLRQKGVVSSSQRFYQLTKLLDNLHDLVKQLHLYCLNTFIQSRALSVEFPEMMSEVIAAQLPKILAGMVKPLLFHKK

[3] = biological target: T2, Androgen receptor (Homo sapiens, UniProt P10275)
T2 sequence (P10275 whole entry): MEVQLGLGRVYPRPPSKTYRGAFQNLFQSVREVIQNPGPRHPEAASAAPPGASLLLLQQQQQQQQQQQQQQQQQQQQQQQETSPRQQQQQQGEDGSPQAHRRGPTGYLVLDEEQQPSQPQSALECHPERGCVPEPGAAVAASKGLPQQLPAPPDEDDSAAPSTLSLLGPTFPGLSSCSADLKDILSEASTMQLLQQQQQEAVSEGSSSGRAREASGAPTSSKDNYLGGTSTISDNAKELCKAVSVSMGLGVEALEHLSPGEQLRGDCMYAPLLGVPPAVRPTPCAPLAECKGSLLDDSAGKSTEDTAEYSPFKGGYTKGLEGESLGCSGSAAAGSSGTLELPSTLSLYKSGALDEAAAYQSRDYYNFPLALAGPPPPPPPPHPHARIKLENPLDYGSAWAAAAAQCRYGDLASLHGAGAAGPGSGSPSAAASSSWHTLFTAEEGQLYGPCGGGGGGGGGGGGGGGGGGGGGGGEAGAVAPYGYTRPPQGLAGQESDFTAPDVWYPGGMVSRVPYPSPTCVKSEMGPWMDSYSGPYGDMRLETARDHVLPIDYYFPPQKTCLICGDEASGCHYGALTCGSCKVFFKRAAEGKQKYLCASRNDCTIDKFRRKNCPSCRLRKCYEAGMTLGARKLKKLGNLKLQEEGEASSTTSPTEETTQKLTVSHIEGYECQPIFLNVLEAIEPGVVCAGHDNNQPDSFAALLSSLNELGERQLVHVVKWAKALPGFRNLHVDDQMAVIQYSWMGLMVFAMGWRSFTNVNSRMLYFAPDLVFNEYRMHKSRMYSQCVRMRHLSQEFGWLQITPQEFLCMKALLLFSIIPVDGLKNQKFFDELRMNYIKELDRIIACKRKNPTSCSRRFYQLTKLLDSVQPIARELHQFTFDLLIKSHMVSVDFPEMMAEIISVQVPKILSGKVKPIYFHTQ

[4] = biological target: 5-hydroxytryptamine receptor 2B (Homo sapiens, UniProt P41595); format: functional, cell-based
[5] = biological target: Vascular endothelial growth factor receptor 2 (Homo sapiens, UniProt P35968); format: functional
[6] = biological target: cGMP-inhibited 3',5'-cyclic phosphodiesterase 3A (Homo sapiens, UniProt Q14432); format: functional
[7] = biological target: Sodium-dependent noradrenaline transporter (Homo sapiens, UniProt P23975)
[8] = biological target: Histamine H3 receptor (Homo sapiens, UniProt Q9Y5N1)
[9] = biological target: Gamma-aminobutyric acid receptor subunit alpha-1/alpha-2/beta-2/gamma-2 (Homo sapiens, UniProt P14867+P18507+P47869+P47870); format: protein-complex assay
[10] = biological target: D(3) dopamine receptor (Homo sapiens, UniProt P35462)
[11] = biological target: 3',5'-cyclic-AMP phosphodiesterase 4A (Homo sapiens, UniProt P27815); format: functional
[12] = biological target: Gamma-aminobutyric acid receptor subunit alpha-1 (Rattus norvegicus, UniProt P62813)
[13] = biological target: T3, Thromboxane A2 receptor (Homo sapiens, UniProt P21731)
T3 sequence (P21731 whole entry): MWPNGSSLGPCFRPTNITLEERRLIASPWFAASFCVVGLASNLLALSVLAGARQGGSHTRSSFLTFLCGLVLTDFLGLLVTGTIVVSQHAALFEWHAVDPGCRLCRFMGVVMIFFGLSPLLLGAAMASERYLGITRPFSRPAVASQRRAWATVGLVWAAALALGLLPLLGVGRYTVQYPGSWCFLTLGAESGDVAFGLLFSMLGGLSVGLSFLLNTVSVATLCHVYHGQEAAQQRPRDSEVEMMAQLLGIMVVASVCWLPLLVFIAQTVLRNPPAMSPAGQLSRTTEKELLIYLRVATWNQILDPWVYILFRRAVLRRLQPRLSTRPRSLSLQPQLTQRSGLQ
Also: assay procedure not described here.

Chain of cGMP-inhibited 3',5'-cyclic phosphodiesterase 3A (Q14432 whole entry): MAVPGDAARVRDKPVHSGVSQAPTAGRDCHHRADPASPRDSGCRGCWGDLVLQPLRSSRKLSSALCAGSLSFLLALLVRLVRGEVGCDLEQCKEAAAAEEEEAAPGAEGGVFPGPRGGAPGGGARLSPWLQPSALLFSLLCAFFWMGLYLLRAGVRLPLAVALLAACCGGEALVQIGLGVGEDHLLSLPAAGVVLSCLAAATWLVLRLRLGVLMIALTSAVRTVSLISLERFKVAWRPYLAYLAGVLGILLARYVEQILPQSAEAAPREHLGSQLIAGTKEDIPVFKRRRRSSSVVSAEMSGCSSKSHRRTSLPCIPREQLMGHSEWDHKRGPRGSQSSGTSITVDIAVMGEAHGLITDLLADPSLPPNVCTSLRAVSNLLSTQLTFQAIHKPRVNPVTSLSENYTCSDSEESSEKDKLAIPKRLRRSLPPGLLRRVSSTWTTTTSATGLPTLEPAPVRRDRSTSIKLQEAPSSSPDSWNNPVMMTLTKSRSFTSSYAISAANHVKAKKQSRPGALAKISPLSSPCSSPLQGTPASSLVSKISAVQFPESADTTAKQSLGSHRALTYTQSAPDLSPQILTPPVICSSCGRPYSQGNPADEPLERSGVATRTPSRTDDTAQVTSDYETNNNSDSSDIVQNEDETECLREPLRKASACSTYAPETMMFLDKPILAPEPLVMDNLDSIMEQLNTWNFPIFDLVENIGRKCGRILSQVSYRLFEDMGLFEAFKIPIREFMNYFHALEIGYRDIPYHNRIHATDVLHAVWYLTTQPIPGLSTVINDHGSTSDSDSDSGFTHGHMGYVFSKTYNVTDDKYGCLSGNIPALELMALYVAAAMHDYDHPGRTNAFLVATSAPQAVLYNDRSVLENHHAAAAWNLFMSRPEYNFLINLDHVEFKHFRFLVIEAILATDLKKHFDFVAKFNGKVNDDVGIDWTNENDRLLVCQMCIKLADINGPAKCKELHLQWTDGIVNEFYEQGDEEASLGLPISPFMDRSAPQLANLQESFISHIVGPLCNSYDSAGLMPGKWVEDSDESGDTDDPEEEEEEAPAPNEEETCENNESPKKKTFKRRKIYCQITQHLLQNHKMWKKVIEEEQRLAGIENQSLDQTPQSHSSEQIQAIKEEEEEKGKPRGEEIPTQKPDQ
Chain of Gamma-aminobutyric acid receptor subunit alpha-1/alpha-2/beta-2/gamma-2 (P14867 whole entry): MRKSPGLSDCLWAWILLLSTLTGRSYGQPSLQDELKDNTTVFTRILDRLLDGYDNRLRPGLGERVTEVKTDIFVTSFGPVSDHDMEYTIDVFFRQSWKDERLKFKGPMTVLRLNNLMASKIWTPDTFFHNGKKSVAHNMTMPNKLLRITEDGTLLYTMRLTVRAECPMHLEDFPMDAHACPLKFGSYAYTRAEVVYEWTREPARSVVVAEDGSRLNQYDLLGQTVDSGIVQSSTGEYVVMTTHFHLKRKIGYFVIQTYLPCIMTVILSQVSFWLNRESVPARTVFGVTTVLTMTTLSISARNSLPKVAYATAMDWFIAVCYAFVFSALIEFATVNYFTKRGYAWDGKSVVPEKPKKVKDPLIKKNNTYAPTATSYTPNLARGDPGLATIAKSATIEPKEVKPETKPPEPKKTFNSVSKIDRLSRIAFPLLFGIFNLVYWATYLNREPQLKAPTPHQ
Chain of Gamma-aminobutyric acid receptor subunit alpha-1/alpha-2/beta-2/gamma-2 (P47870 whole entry): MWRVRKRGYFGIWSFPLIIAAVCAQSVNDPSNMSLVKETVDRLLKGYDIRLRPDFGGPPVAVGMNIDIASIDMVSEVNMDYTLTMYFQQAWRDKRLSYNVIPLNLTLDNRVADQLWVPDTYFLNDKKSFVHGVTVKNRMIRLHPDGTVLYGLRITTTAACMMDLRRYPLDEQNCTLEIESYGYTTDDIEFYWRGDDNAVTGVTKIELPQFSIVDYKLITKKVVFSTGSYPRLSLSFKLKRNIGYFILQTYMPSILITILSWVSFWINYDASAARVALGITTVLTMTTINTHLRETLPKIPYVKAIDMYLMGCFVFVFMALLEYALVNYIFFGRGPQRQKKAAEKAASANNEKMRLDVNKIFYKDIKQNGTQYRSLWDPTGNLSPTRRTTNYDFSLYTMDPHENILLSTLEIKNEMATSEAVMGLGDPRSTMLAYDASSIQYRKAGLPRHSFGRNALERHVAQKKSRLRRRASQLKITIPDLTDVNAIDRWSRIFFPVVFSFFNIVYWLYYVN
Chain of Gamma-aminobutyric acid receptor subunit alpha-1/alpha-2/beta-2/gamma-2 (P18507 whole entry): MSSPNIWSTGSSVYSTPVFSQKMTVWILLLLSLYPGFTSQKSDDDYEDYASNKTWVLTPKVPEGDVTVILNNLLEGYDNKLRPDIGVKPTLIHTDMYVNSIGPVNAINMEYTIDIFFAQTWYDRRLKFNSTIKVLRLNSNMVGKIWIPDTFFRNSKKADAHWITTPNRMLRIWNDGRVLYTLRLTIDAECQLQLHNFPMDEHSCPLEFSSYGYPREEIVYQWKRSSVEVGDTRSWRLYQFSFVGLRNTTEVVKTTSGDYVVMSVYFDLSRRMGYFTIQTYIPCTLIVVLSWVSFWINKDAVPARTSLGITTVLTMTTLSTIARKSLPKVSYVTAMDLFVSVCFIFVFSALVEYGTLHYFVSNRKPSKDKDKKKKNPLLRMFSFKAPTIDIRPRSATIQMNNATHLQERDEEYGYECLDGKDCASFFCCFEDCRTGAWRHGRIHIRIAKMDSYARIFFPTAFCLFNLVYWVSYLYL
Chain of Gamma-aminobutyric acid receptor subunit alpha-1/alpha-2/beta-2/gamma-2 (P47869 whole entry): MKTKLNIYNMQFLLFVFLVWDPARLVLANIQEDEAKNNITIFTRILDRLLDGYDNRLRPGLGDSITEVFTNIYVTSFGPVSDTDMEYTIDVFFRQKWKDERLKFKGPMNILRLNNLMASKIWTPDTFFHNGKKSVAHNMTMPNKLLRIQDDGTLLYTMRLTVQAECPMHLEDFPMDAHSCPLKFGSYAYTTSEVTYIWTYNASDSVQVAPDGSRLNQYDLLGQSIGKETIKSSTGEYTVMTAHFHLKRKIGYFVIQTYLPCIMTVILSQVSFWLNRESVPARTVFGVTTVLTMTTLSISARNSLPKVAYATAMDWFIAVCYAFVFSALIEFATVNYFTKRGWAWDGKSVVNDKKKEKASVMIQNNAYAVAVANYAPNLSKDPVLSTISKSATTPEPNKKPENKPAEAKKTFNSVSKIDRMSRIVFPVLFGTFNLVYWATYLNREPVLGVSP
Chain of D(3) dopamine receptor (P35462 whole entry): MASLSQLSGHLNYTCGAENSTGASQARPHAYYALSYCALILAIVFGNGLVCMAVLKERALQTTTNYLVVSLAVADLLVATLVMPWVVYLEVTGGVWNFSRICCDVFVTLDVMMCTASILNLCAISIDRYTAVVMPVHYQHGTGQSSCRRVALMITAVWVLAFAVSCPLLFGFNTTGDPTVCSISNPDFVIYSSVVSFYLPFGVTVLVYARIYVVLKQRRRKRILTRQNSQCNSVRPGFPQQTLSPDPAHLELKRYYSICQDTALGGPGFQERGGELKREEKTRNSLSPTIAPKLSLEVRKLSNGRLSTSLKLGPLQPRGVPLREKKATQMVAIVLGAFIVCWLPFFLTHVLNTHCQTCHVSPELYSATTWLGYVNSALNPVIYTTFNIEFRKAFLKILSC
Chain of Voltage-gated inwardly rectifying potassium channel KCNH2 (Q12809 whole entry): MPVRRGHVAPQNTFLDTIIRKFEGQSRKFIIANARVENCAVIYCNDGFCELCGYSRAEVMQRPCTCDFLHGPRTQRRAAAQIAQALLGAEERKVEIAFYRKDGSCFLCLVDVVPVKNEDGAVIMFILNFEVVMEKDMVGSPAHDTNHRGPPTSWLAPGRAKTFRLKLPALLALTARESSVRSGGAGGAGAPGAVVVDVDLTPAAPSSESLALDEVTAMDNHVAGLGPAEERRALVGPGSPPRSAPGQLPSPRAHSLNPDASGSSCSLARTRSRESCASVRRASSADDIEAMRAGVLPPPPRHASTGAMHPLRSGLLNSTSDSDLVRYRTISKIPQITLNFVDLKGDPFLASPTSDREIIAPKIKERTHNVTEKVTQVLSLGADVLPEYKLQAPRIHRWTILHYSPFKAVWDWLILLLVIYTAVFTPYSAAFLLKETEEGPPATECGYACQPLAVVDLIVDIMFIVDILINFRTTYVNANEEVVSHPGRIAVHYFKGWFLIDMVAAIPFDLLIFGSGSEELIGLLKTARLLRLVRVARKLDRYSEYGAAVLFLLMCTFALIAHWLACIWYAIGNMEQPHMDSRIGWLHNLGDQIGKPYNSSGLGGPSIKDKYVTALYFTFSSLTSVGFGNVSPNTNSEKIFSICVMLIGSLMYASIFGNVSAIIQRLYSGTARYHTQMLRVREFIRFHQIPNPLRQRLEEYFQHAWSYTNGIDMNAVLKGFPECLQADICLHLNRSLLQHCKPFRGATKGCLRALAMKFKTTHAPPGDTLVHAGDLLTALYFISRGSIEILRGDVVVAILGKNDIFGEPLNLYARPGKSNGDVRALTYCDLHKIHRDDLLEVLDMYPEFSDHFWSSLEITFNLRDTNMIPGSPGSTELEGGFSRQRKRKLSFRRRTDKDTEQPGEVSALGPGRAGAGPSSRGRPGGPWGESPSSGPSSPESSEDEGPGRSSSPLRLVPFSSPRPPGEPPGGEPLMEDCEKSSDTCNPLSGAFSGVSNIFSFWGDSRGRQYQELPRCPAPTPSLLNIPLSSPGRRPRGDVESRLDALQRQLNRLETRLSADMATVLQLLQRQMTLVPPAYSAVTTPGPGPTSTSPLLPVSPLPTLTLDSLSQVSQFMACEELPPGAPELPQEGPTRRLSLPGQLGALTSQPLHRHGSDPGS
Chain of Histamine H3 receptor (Q9Y5N1 whole entry): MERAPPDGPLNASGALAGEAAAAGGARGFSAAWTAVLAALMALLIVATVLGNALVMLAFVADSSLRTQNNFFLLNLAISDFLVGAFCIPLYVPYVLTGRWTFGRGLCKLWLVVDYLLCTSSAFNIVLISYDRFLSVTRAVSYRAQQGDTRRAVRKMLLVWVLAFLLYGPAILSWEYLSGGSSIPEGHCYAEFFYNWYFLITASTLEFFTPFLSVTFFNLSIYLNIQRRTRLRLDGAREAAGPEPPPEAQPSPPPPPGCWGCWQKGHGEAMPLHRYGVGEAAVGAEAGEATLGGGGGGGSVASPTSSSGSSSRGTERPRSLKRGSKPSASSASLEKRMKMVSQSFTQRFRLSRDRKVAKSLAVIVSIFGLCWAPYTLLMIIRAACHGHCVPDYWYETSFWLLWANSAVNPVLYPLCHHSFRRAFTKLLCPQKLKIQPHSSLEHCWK

SMILES | AC50 [1] [µM] | AC50 [2] [µM] | AC50 [3] [µM] | AC50 [4] [µM] | AC50 [5] [µM] | AC50 [6] [µM] | AC50 [7] [µM] | AC50 [8] [µM] | AC50 [9] [µM] | AC50 [10] [µM] | AC50 [11] [µM] | AC50 [12] [µM] | AC50 [13] [µM]
NC1CCN(c2c(F)cc3c(=O)c(C(=O)O)cn(C4CC4)c3c2Cl)C1 (centres undefined) [CLINAFLOXACIN] | > 30 | > 30 | > 30 | > 30 | > 30 | > 30 | > 30 | > 30 | > 30 | > 30 | > 30 | – | –
CCOc1ccc(Cc2cc([C@@H]3O[C@H](CO)[C@@H](O)[C@H](O)[C@H]3O)ccc2Cl)cc1 [DAPAGLIFLOZIN] | > 30 | > 30 | > 30 | > 30 | > 30 | > 30 | > 30 | > 30 | – | > 30 | > 30 | > 30 | > 30
CCOC(=O)/C=C1\SC(N2CCCCC2)C(=O)N1C (centres undefined) [ETOZOLIN] | > 30 | > 30 | > 30 | > 30 | > 30 | > 30 | > 30 | > 30 | > 30 | > 30 | > 30 | – | –
N[C@H]1C(O)O[C@H](CO)[C@@H](O)[C@@H]1O (some centres undefined) [GLUCOSAMINE] | > 30 | > 30 | > 30 | > 30 | > 30 | > 30 | > 30 | > 30 | > 30 | > 30 | > 30 | – | –
CCCCOC(=O)C(=O)[C@H]1[C@H](C)C[C@H]2[C@@H]3C[C@H](F)C4=CC(=O)C=C[C@]4(C)[C@H]3[C@@H](O)C[C@@]21C [FLUOCORTIN BUTYL] | 16 | 0.711 | 0.316 | > 30 | > 30 | > 30 | 29.5 | > 30 | > 30 | > 30 | > 30 | – | –
CC(=O)[C@@]1(O)CC[C@H]2[C@@H]3C=C(C)C4=CC(=O)CC[C@]4(C)[C@H]3CC[C@@]21C | > 30 | 0.285 | 0.0119 | > 30 | > 30 | > 30 | > 30 | > 30 | > 30 | > 30 | > 30 | – | –
COc1cc([C@@H]2c3cc4c(cc3[C@H](O)[C@H]3COC(=O)[C@H]23)OCO4)cc(OC)c1OC [PODOFILOX] | > 30 | > 30 | > 30 | > 30 | > 30 | > 30 | > 30 | > 30 | > 30 | > 30 | > 10 | – | –
CCOc1ccccc1C(N)=O [ETHENZAMIDE] | > 30 | > 30 | > 30 | > 30 | > 30 | > 30 | > 30 | > 30 | > 30 | > 30 | > 30 | – | –
